Structures are written as SMILES.

What all share (format): cell-based
For one experiment, the system named is NQO1. The experiment can be described thus: Western blot of Nrf2-dependent protein expression in AREc32 cells: NQO1. As to conditions: 30 μM, 24 h. Here is the method:
(§1) AREc32 cells were collected from plates after 24 h of treatment with the selected compound at 30 µM. Then, they were lysed in ice-cold lysis buffer (1% Nonidet P-40, 10% glycerol, 137 mM NaCl, 20 mM Tris HCl pH 7.5, 1 μg/mL leupeptin, 1 mM phenylmethylsulfonyl fluoride, 20 mM NaF, 1 mM sodium pyrophosphate, and 1 mM Na3VO4). After this treatment, proteins (30 μg) were resolved by gel electrophoresis on sodium dodecyl sulfate–polyacrylamide (12%) and transferred to Immobilon-P membranes (MilliporeSigma, Burlington, MA, USA). The membranes were incubated with anti-GCLc (1:1000, Ab41463 (Abcam, Cambridge, MA, USA), anti−HMOX1 (1:1000, ab68477, Abcam), anti-NQO1 (1:1000, 11451-1-AP, Proteintech, Manchester, UK), or anti-β-Actin (1:100,000, A3854, Merck, Madrid, Spain). Peroxidase-conjugated secondary antibodies (1:10,000 and anti-rabbit: SC-2357, Santa Cruz Biotechnology, Dallas, TX, USA) were employed to detect the proteins by enhanced chemoluminescence. Band intensities corresponding to immunoblot detection of protein samples were quantitated with Fiji software.
(§2) Figure 4 Compound 3g effectively induces Nrf2 translocation and overexpression of Nrf2-ARE dependent genes in AREc32 cells. […] (B) Nrf2 nuclear localization analysis, measured as integrated intensity localized at the nucleus. HMOX1 (C) and NQO1 (D) expression in AREc32, measured by Western blot analysis. […]

The subject of a further experiment is HMOX1. Nature of the experiment: Western blot of Nrf2-dependent protein expression in AREc32 cells: HMOX1. To be noted: 30 μM, 24 h. The method, then:
as §1, §2

A further experiment has as its system Nrf2. Nature of the experiment: Nrf2 nuclear translocation, immunocytochemistry in AREc32 cells. To be noted: 30 μM, 1 h. The method, then: AREc32 or SH-SY5Y cells were seeded in 24 multiwell plates (40,000 or 100,000 cells per well, respectively) on poly-D-Lysine coated crystal slides. AREc32 cells were incubated for 1 h with the compounds under assay, and were then fixed by treatment with a 4% solution of paraformaldehyde in PBS for 15 min, followed by three washings with PBS in 5 min intervals. SH-SY5Y cells were treated with compounds during 24 h, and then co-incubated with medium (basal), okadaic acid (OA, 20 nM), or OA plus compound 3i (10 μM). […]
Figure 4 Compound 3g effectively induces Nrf2 translocation and overexpression of Nrf2-ARE dependent genes in AREc32 cells. […] (B) Nrf2 nuclear localization analysis, measured as integrated intensity localized at the nucleus. HMOX1 (C) and NQO1 (D) expression in AREc32, measured by Western blot analysis. Cells were treated with compound 3g (30 µM), sulforaphane (10 µM), or culture medium (basal) for 24 h and protein expression was then assessed. Graphs are expressed as densitometric quantification using β-actin for normalization (bottom). […] Data are expressed as mean ± S.E.M. of six independent experiments. […]

Experiment [1] has as its system AT8 (Ser202, Thr205 phospho-Tau). The experiment can be described thus: Phospho-tau (AT8) immunofluorescence in SH-SY5Y cells treated with okadaic acid. As to conditions: 10 µM, OA 20 nM, 8 h. The method, then:
AREc32 or SH-SY5Y cells were seeded in 24 multiwell plates (40,000 or 100,000 cells per well, respectively) on poly-D-Lysine coated crystal slides. AREc32 cells were incubated for 1 h with the compounds under assay, and were then fixed by treatment with a 4% solution of paraformaldehyde in PBS for 15 min, followed by three washings with PBS in 5 min intervals. SH-SY5Y cells were treated with compounds during 24 h, and then co-incubated with medium (basal), okadaic acid (OA, 20 nM), or OA plus compound 3i (10 μM). Thereafter, cells were permeabilized by treatment with 0.5% Triton X-100 for 5 min, followed by three washings with PBS, and were incubated overnight with primary antibody anti-Nrf2 (ARE, 1:50, A-10, sc-365949, Santa Cruz Biotechnology, Dallas, TX, USA), anti-pTau AT8 (1:400, MN1020, Thermofisher, Madrid, Spain), and anti-HO-1 (1:400, Ab13243, Abcam, Madrid, Spain). After three washes with PBS, the cells were incubated with secondary antibodies (1:800, 1 h). In order to visualize the nuclei, the cells were counterstained during the second wash with 5 μg·mL^−1 of Hoechst 33342 (Invitrogen, Madrid, Spain). […]
Finally, we evaluated the capacity of compound 3i to reduce tau hyperphosphorylation in the SH-SY5Y cellular line induced by okadaic acid (OA). […]

Another experiment concerns SH-SY5Y cells. Nature of the experiment: Total ROS production (H2DCFDA) in SH-SY5Y cells under R/O. As to conditions: 0.1, 1 and 10 µM; R/O 6 h. Here is the method: ROS production was evaluated using the fluorescent dye H2DCFDA [20]. Briefly, after deacetylation inside the cell, the H2DCF derivative is able to react with oxygen-free radicals and is transformed into dichlorofluorescein, increasing its fluorescence intensity. SH-SH5Y cells were seeded in 96-well clear-bottom black plates 6 × 10^4 cells/well. After 24 h, cells were treated with compound 3i at the desired concentrations for 24 h. Treatments were then eliminated and the cells were loaded with H2DCFDA (10 μM) for 45 min. […] Fluorescence was evaluated in a fluorescence microplate reader (Fluostar optima; BMG Labtech, Ortenberg, Baden-Württemberg, Germany) at 485/520 excitation/emission wavelengths, respectively. […]
To further evaluate its mechanism of action, and considering the importance of exacerbated oxidative stress in neurodegenerative diseases, we evaluated its capacity to reduce free radical species production using the above-mentioned R/O toxic combination to generate ROS and measure the influence of 3i in the total ROS production by using the H2DCFDA dye, and also the specific superoxide production by using the selective dye dihydroetidium (DHE). […]

Consider `COC(=O)C1=C(C)N(CCc2ccccc2)C(=O)/C1=C\c1cc(OC)c(OC)c(OC)c1` [Compound 3g, Methyl (Z)-2-Methyl-5-oxo-1-phenethyl-4-(3,4,5-trimethoxybenzylidene)-4,5-dihydro-1H-pyrrole-3-carboxylate], for which, in the experiment on NQO1, the NQO1 protein levels entry is “significantly increased”. Moreover, the HMOX1 protein levels result in the experiment with HMOX1 was “significantly increased”. Besides, the “Nrf2 distribution in cells” value in the experiment with Nrf2 is “predominately nuclear distribution of Nrf2”.
Consider `COC(=O)C1=C(C)N(CCc2ccccc2)C(=O)/C1=C\c1ccc(O)c(O)c1` [Compound 3i, Methyl (Z)-4-(3,4-Dihydroxybenzylidene)-2-methyl-5-oxo-1-phenethyl-4,5-dihydro-1H-pyrrole-3-carboxylate], for which, in experiment [1], the phospho-tau levels entry is recorded as “significantly reduced phopho-tau levels to basal levels”. In addition, in the experiment on SH-SY5Y cells, the “total ROS production (H2DCFDA)” value was “reduce ROS production almost to basal levels at all concentrations tested”.

Source of the values: paper PMC8230565, “Bisavenathramide Analogues as Nrf2 Inductors and Neuroprotectors in In Vitro Models of Oxidative Stress and Hyperphosphorylation” (Antioxidants, 2021).
